ChEMBL document CHEMBL1649454, “Genetic analysis of colistin resistance in Salmonella enterica serovar Typhimurium” (2009)
Calls of active or inactive are those of the source. The calls are words filed in the database; no cut-off is given here.

How the values were obtained:
Salmonella typhimurium [1] = test: Antimicrobial activity against Salmonella enterica serovar Typhimurium LT2 DA10845 harboring pmrB (ATG to ATA, M186I mutant) grown in liquid culture; format: functional
Salmonella typhimurium [2] = test: Antimicrobial activity against Salmonella enterica serovar Typhimurium LT2 DA10826 harboring pmrA (GGG to GAG, G53E mutant) grown in liquid culture; format: functional
Salmonella typhimurium [3] = test: Antimicrobial activity against Salmonella enterica serovar Typhimurium LT2 DA10840 harboring pmrA (CGC to CAC, R81H mutant) grown in liquid culture; format: functional
Salmonella typhimurium [4] = test: Antimicrobial activity against Salmonella enterica serovar Typhimurium LT2 DA10833 harboring pmrB (GAA to AAA, E161K mutant) grown in liquid culture; format: functional
Salmonella typhimurium [5] = test: Antimicrobial activity against Salmonella enterica serovar Typhimurium LT2 DA6192 grown in liquid culture; format: functional
Salmonella typhimurium [6] = test: Antimicrobial activity against Salmonella enterica serovar Typhimurium LT2 DA10831 harboring pmrB (AGC to CGC, S305R mutant) by Etest method; format: functional, organism-based; conditions: Salmonella enterica subsp. enterica serovar Typhimurium str. LT2
Salmonella typhimurium [7] = test: Antimicrobial activity against Salmonella enterica serovar Typhimurium LT2 DA10875 harboring pmrB (GGG to AGG, G206R mutant) by Etest method; format: functional, organism-based; conditions: Salmonella enterica subsp. enterica serovar Typhimurium str. LT2
Salmonella typhimurium [8] = test: Antimicrobial activity against Salmonella enterica serovar Typhimurium LT2 DA10863 harboring pmrB (GGG to TGG, G206W mutant) by Etest method; format: functional, organism-based; conditions: Salmonella enterica subsp. enterica serovar Typhimurium str. LT2
Salmonella typhimurium [9] = test: Bactericidal activity against Salmonella enterica serovar Typhimurium LT2 DA6192 at 1 mg/L after 30 mins by time kill study; format: functional, organism-based; conditions: Salmonella enterica subsp. enterica serovar Typhimurium str. LT2
Salmonella typhimurium [10] = test: Antimicrobial activity against Salmonella enterica serovar Typhimurium LT2 DA10845 harboring pmrB (ATG to ATA, M186I mutant) by Etest method; format: functional, organism-based; conditions: Salmonella enterica subsp. enterica serovar Typhimurium str. LT2
Salmonella typhimurium [11] = test: Antimicrobial activity against Salmonella enterica serovar Typhimurium LT2 DA10839 harboring pmrB (TCC to CCC, S124P mutant) by Etest method; format: functional, organism-based; conditions: Salmonella enterica subsp. enterica serovar Typhimurium str. LT2
Salmonella typhimurium [12] = test: Bactericidal activity against Salmonella enterica serovar Typhimurium LT2 DA10829 harboring pmrB S29R mutant at 16 mg/L after 30 mins by time kill study; format: functional, organism-based; conditions: Salmonella enterica subsp. enterica serovar Typhimurium str. LT2
Salmonella typhimurium [13] = test: Antimicrobial activity against Salmonella enterica serovar Typhimurium LT2 DA10856 harboring pmrB (GTG to ATG, V161M mutant) by Etest method; format: functional, organism-based; conditions: Salmonella enterica subsp. enterica serovar Typhimurium str. LT2
Salmonella typhimurium [14] = test: Bactericidal activity against Salmonella enterica serovar Typhimurium LT2 DA10840 harboring pmrA R81H mutant at 16 mg/L after 240 mins by time kill study; format: functional, organism-based; conditions: Salmonella enterica subsp. enterica serovar Typhimurium str. LT2
Salmonella typhimurium [15] = test: Antimicrobial activity against Salmonella enterica serovar Typhimurium LT2 DA10859 harboring pmrB (GTG to GGG, V161G mutant) by Etest method; format: functional, organism-based; conditions: Salmonella enterica subsp. enterica serovar Typhimurium str. LT2
Salmonella typhimurium [16] = test: Antimicrobial activity against Salmonella enterica serovar Typhimurium LT2 DA6192 by Etest method; format: functional, organism-based; conditions: Salmonella enterica subsp. enterica serovar Typhimurium str. LT2
Salmonella typhimurium [17] = test: Antimicrobial activity against Salmonella enterica serovar Typhimurium LT2 DA10837 harboring pmrB (CCG to CAG, P94Q mutant) by Etest method; format: functional, organism-based; conditions: Salmonella enterica subsp. enterica serovar Typhimurium str. LT2
Salmonella typhimurium [18] = test: Bactericidal activity against Salmonella enterica serovar Typhimurium LT2 DA10840 harboring pmrA R81H mutant at 16 mg/L after 30 mins by time kill study; format: functional, organism-based; conditions: Salmonella enterica subsp. enterica serovar Typhimurium str. LT2
Salmonella typhimurium [19] = test: Antimicrobial activity against Salmonella enterica serovar Typhimurium LT2 DA10840 harboring pmrA (CGC to CAC, R81H mutant) by Etest method; format: functional, organism-based; conditions: Salmonella enterica subsp. enterica serovar Typhimurium str. LT2
Salmonella typhimurium [20] = test: Antimicrobial activity against Salmonella enterica serovar Typhimurium LT2 DA10864 harboring pmrB (AGC to AGA, S305R mutant) by Etest method; format: functional, organism-based; conditions: Salmonella enterica subsp. enterica serovar Typhimurium str. LT2
Salmonella typhimurium [21] = test: Antimicrobial activity against Salmonella enterica serovar Typhimurium LT2 DA10832 harboring pmrB (ACC to GCC, T92A mutant) by Etest method; format: functional, organism-based; conditions: Salmonella enterica subsp. enterica serovar Typhimurium str. LT2
Salmonella typhimurium [22] = test: Bactericidal activity against Salmonella enterica serovar Typhimurium LT2 DA10829 harboring pmrB S29R mutant at 16 mg/L after 240 mins by time kill study; format: functional, organism-based; conditions: Salmonella enterica subsp. enterica serovar Typhimurium str. LT2
Salmonella typhimurium [23] = test: Bactericidal activity against Salmonella enterica serovar Typhimurium LT2 DA10845 harboring pmrB M186I mutant at 16 mg/L after 30 mins by time kill study; format: functional, organism-based; conditions: Salmonella enterica subsp. enterica serovar Typhimurium str. LT2
Salmonella typhimurium [24] = test: Antimicrobial activity against Salmonella enterica serovar Typhimurium LT2 DA10835 harboring (pmrB GTG to CTG, V161L mutant) by Etest method; format: functional, organism-based; conditions: Salmonella enterica subsp. enterica serovar Typhimurium str. LT2
Salmonella typhimurium [25] = test: Antimicrobial activity against Salmonella enterica serovar Typhimurium LT2 DA10874 harboring pmrB ACC to CCC, T147P mutant) by Etest method; format: functional, organism-based; conditions: Salmonella enterica subsp. enterica serovar Typhimurium str. LT2
Salmonella typhimurium [26] = test: Antimicrobial activity against Salmonella enterica serovar Typhimurium LT2 DA10833 harboring pmrB (GAA to AAA, E161K mutant) by Etest method; format: functional, organism-based; conditions: Salmonella enterica subsp. enterica serovar Typhimurium str. LT2
Salmonella typhimurium [27] = test: Antimicrobial activity against Salmonella enterica serovar Typhimurium LT2 DA10853 pmrB AAT to TAT and N130Y mutant by Etest method; format: functional, organism-based; conditions: Salmonella enterica subsp. enterica serovar Typhimurium str. LT2
Salmonella typhimurium [28] = test: Antimicrobial activity against Salmonella enterica serovar Typhimurium LT2 DA10850 harboring pmrA (GGG to AGG, G53R mutant) by Etest method; format: functional, organism-based; conditions: Salmonella enterica subsp. enterica serovar Typhimurium str. LT2
Salmonella typhimurium [29] = test: Antimicrobial activity against Salmonella enterica serovar Typhimurium LT2 DA10826 harboring pmrA (GGG to GAG, G53E mutant)by Etest method; format: functional, organism-based; conditions: Salmonella enterica subsp. enterica serovar Typhimurium str. LT2
Salmonella typhimurium [30] = test: Antimicrobial activity against Salmonella enterica serovar Typhimurium LT2 DA10829 harboring pmrB (AGT to AGA, S29R mutant) by Etest method; format: functional, organism-based; conditions: Salmonella enterica subsp. enterica serovar Typhimurium str. LT2
Salmonella typhimurium [31] = test: Antimicrobial activity against Salmonella enterica serovar Typhimurium LT2 DA10848 harboring pmrB (ACG to CCG, T156P mutant) by Etest method; format: functional, organism-based; conditions: Salmonella enterica subsp. enterica serovar Typhimurium str. LT2
Salmonella typhimurium [32] = test: Bactericidal activity against Salmonella enterica serovar Typhimurium LT2 DA10845 harboring pmrB M186I mutant at 16 mg/L after 240 mins by time kill study; format: functional, organism-based; conditions: Salmonella enterica subsp. enterica serovar Typhimurium str. LT2
Salmonella typhimurium [33] = test: Antimicrobial activity against Salmonella enterica serovar Typhimurium LT2 DA10862 harboring pmrB (GAG to GCG, E21A mutant) by Etest method; format: functional, organism-based; conditions: Salmonella enterica subsp. enterica serovar Typhimurium str. LT2
Salmonella typhimurium [34] = test: Antimicrobial activity against Salmonella enterica serovar Typhimurium LT2 DA10844 harboring pmrA (GGG to AGG, G15R mutant) by Etest method; format: functional, organism-based; conditions: Salmonella enterica subsp. enterica serovar Typhimurium str. LT2
Salmonella typhimurium [35] = test: Antimicrobial activity against Salmonella enterica serovar Typhimurium LT2 DA10857 harboring pmrA (CGC to TGC, R81C mutant) by Etest method; format: functional, organism-based; conditions: Salmonella enterica subsp. enterica serovar Typhimurium str. LT2
[36] = Salmonella enterica subsp. enterica serovar Typhimurium str. LT2

With `CC[C@H](C)[C@H](NC(=O)[C@H](CCCCN)NC(=O)[C@H](CCC(=O)O)NC(=O)[C@H](CCCCN)NC(=O)[C@H](CO)NC(=O)[C@H](CCCCN)NC(=O)[C@H](CCCNC(=N)N)NC(=O)[C@H](Cc1ccccc1)NC(=O)[C@H](Cc1ccccc1)NC(=O)[C@H](CC(=O)O)NC(=O)CNC(=O)[C@H](CC(C)C)NC(=O)[C@@H](N)CC(C)C)C(=O)NCC(=O)N[C@@H](CCCCN)C(=O)N[C@@H](CCC(=O)O)C(=O)N[C@@H](Cc1ccccc1)C(=O)N[C@@H](CCCCN)C(=O)N[C@@H](CCCNC(=N)N)C(=O)N[C@H](C(=O)N[C@H](C(=O)N[C@@H](CCC(N)=O)C(=O)N[C@@H](CCCNC(=N)N)C(=O)N[C@H](C(=O)N[C@@H](CCCCN)C(=O)N[C@@H](CC(=O)O)C(=O)N[C@@H](Cc1ccccc1)C(=O)N[C@@H](CC(C)C)C(=O)N[C@@H](CCCNC(=N)N)C(=O)N[C@@H](CC(N)=O)C(=O)N[C@@H](CC(C)C)C(=O)N[C@H](C(=O)N1CCC[C@H]1C(=O)N[C@@H](CCCNC(=N)N)C(=O)N[C@H](C(=O)N[C@@H](CCC(=O)O)C(=O)N[C@@H](CO)C(=O)O)[C@@H](C)O)C(C)C)[C@@H](C)CC)C(C)C)[C@@H](C)CC` [CATHELICIDIN] as the compound, how does the MIC (Salmonella typhimurium [1]) read?
The MIC was 25 µM.

What about the MIC (Salmonella typhimurium [2]) of the same compound?
The MIC was 25 µM.

What about the MIC (Salmonella typhimurium [3]) of the same compound?
The MIC was 25 µM.

What about the MIC (Salmonella typhimurium [4]) of the same compound?
Its MIC is 25 µM.

And the MIC (Salmonella typhimurium [5])?
Its MIC is 15 µM.

How did the MIC (Salmonella typhimurium [1]; [36]) turn out when BLEOMYCIN was run?
The MIC was 0.19 mg/L.

What about the MIC (Salmonella typhimurium [2]; [36]) of the same compound?
Its MIC is 0.19 mg/L.

What about the MIC (Salmonella typhimurium [3]; [36]) of the same compound?
The MIC was 0.19 mg/L.

What about the MIC (Salmonella typhimurium [4]; [36]) of the same compound?
The MIC was 0.19 mg/L.

And the MIC (Salmonella typhimurium [5]; [36])?
The MIC was 0.19 mg/L.

For COLISTIN, which MIC (Salmonella typhimurium [6]) is on record?
The MIC was 2.7 mg/L.

What about the MIC (Salmonella typhimurium [7]) of the same compound?
Its MIC is 2 mg/L.

What about the MIC (Salmonella typhimurium [8]) of the same compound?
The MIC was 2 mg/L.

What about the Activity (Salmonella typhimurium [9]) of the same compound?
Its Activity is “Active”.

What about the MIC (Salmonella typhimurium [10]) of the same compound?
Its MIC is 2.8 mg/L.

And the MIC (Salmonella typhimurium [11])?
The MIC was 2.3 mg/L.

What about the Activity (Salmonella typhimurium [12]) of the same compound?
Its Activity is “Active”.

And the MIC (Salmonella typhimurium [13])?
Its MIC is 4 mg/L.

What about the Activity (Salmonella typhimurium [14]) of the same compound?
The Activity was “Active”.

And the MIC (Salmonella typhimurium [15])?
Its MIC is 3 mg/L.

And the MIC (Salmonella typhimurium [16])?
Its MIC is 0.125 mg/L.

And the MIC (Salmonella typhimurium [17])?
Its MIC is 2.5 mg/L.

What about the Activity (Salmonella typhimurium [18]) of the same compound?
Its Activity is “Active”.

And the MIC (Salmonella typhimurium [19])?
Its MIC is 3 mg/L.

And the MIC (Salmonella typhimurium [20])?
Its MIC is 2.7 mg/L.

And the MIC (Salmonella typhimurium [21])?
The MIC was 0.25 mg/L.

And the Activity (Salmonella typhimurium [22])?
The Activity was “Active”.

What about the Activity (Salmonella typhimurium [23]) of the same compound?
The Activity was “Active”.

What about the MIC (Salmonella typhimurium [24]) of the same compound?
The MIC was 2 mg/L.

And the MIC (Salmonella typhimurium [25])?
Its MIC is 2.5 mg/L.

What about the MIC (Salmonella typhimurium [26]) of the same compound?
The MIC was 3 mg/L.

What about the MIC (Salmonella typhimurium [27]) of the same compound?
The MIC was 2 mg/L.

And the MIC (Salmonella typhimurium [28])?
Its MIC is 3 mg/L.

And the MIC (Salmonella typhimurium [29])?
Its MIC is 3 mg/L.

What about the MIC (Salmonella typhimurium [30]) of the same compound?
The MIC was 0.5 mg/L.

What about the MIC (Salmonella typhimurium [31]) of the same compound?
The MIC was 4.4 mg/L.

What about the Activity (Salmonella typhimurium [32]) of the same compound?
The Activity was “Active”.

And the MIC (Salmonella typhimurium [33])?
Its MIC is 4 mg/L.

What about the MIC (Salmonella typhimurium [34]) of the same compound?
Its MIC is 2.7 mg/L.

And the MIC (Salmonella typhimurium [35])?
The MIC was 4 mg/L.

Which results are given for “H-RRRPRPPYLPRPRPPPFFPPRLPPRIPPGFPPRFPPRFP-NH2”?
MIC (Salmonella typhimurium [1]): 3 µM; MIC (Salmonella typhimurium [2]): 3 µM; MIC (Salmonella typhimurium [3]): 3 µM; MIC (Salmonella typhimurium [4]): 3 µM; MIC (Salmonella typhimurium [5]): 3 µM
